The numbers were not newly measured in patent publication US20030175285A1, “Molecule of pharmaceutical interest comprising at its n-terminal a glutamic acid or a glutamine in the form of a physiologically acceptable strong acid” (priority 2000, published 2003), which cites them from elsewhere.

Ends that are not written are not given here.

The subject of series [1] is osteoblasts and chondrocytes. The conditions noted are these: trifluoroacetate form.
The subject of a further series is melanoma. The conditions noted are these: acetate form, patients suffering from a melanoma.
For series [2] the following is noted: acetate form.

With Calcitonin, in series [1], the “toxicity for cells in culture” value is “toxic”. Turning to “Amylin: synthetic peptide in trifluoroacetate form (KCNTATCATQRLANFLVHSSNNFGAILSSTNVGSNTY; cysteine pairing not given here; also: trifluoroacetate salt; UniProt P10997 34-70, looked up)”, in series [1], the “toxicity for cells in culture” value is “toxic”. Consider EVDPIGHLY [MAGE-3], for which the clinical antitumor effect entry with melanoma was “tumor regression”. Also, the required storage temperature in series [2] is −80 °C.
